Like-named read-outs stand apart in the source and are kept apart here.
Columns and labels:
RORγt [1] = target: T1, RORγt (Homo sapiens, UniProt P51449); assay: Cofactor recruitment test (Alpha Screen, biotinylated SRC-1 peptide); type: biochemical; details: read-out: Signal value inhibitory rate at test compound 1 μM (%)
T1 sequence (P51449 1-497 isoform P51449-2): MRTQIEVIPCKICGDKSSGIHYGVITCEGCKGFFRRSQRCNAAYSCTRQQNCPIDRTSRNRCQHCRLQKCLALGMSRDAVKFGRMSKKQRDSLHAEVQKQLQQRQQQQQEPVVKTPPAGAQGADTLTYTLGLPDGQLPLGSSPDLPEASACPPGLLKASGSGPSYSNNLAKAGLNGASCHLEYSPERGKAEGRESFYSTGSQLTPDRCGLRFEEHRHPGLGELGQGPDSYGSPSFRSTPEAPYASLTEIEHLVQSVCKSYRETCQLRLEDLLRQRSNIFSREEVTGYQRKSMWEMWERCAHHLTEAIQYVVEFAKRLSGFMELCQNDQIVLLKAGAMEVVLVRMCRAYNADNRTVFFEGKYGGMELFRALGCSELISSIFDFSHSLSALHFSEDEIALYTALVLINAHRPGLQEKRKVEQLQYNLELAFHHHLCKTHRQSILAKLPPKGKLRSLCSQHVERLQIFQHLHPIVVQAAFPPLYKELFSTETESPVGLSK
Protocol: Cofactor Recruitment Test
Cofactor recruitment test was performed by Alpha Screen (Histidine Detection Kit, PerkinElmer) method. First, a test compound was diluted with an assay buffer (50 mM Tris-HCl (pH 7.5), 50 mM KCl, 1 mM DTT, 0.1% BSA) and added to a 384 well plate by 5 μL. […] The mixture was stood in a dark place for 1 hr, and the signal value was measured by Envision (PerkinElmer).

RORγt [2] = target: T1, RORγt; assay: Jurkat reporter test (human IL-17 ROR response element luciferase, RORγt vector); type: cell-based; details: read-out: Luminescence level inhibitory rate at test compound 3 μM (%)
Procedure, shortened: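 Jurkat cells were electroporated (1350 V, 10 ms, 3 pulses) with reporter constructs, then cultured overnight with compound in RPMI containing 10% lipid-reduced FCS, 10 mM HEPES pH 7.5 and 5 μM lovastatin. Luciferase was quantified by Bright-Glo luminescence after 10 min at room temperature.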

RORγt [3] = target: T1, RORγt; assay: RORγt binding test using fluorescent-labeled synthetic ligand (TR-FRET); details: read-out: Binding inhibitory rate of fluorescent-labeled synthetic ligand to RORγt at test compound 1 μM (%)
Protocol: RORγt Binding Test Using Fluorescent-labeled Synthetic Ligand
The binding activity of the test compound to RORγt was measured by a time resolved fluorescence resonance energy transfer method (TR-FRET) utilizing histidine-tagged RORγt, fluorescent-labeled synthetic ligand, and terbium-labeled anti-histidine tag antibody (Invitrogen). First, a test compound diluted with an assay buffer (20 mM Tris-HCl (pH 7.5), 100 mM NaCl, 1 mM DTT, 0.1% BSA) was added to a 384 well plate by 3 μL. Then, RORγt diluted with an assay buffer to 240 nM was added by 3 μL, after which fluorescent-labeled synthetic ligand diluted with the assay buffer to 12 μM was added by 3 μL, and the mixture was stood at room temperature for 20 min. Thereafter, a terbium-labeled anti-histidine tag antibody diluted with the assay buffer to 8 nM was added by 3 μL. The mixture was stood at room temperature for 20 min, and fluorescence intensity (excitation wavelength 320 nm, fluorescence wavelength 520 nm, delay time 100 microseconds) was measured by Envision (PerkinElmer).

RORγt [4] = target: T1, RORγt; assay: RORγt binding test using fluorescent-labeled cholesterol (TR-FRET); details: read-out: Binding inhibitory rate of fluorescent-labeled cholesterol to RORγt at test compound 1 μM (%)
Procedure, shortened: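 TR-FRET displacement with His-tagged RORγt, BODIPY-cholesterol and Tb-anti-His antibody in Tris-HCl pH 7.5, 100 mM NaCl, 1 mM DTT, 0.1% BSA. Compound, RORγt and labelled cholesterol were incubated 20 min at RT, then antibody was added for another 20 min.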

[5] = test compound 3 μM, Jurkat cells

SMILES | inhibition at 1 µM (RORγt [1]) [%] | inhibition at 1 µM (RORγt [3]) [%] | inhibition at 1 µM (RORγt [4]) [%] | inhibition at 3 µM (RORγt [2]; [5]) [%] | inhibition at 3 µM (RORγt [2]; Jurkat) [%]
COc1ccc2c(c1)CCN(C(=O)c1cc(O)no1)[C@H]2C(=O)Nc1ccc([Si](C)(C)C)c(F)c1 [Example 7, (1R)-N-(3-fluoro-4-(trimethylsilyl)phenyl)-2-((3-hydroxy-1,2-oxazol-5-yl)carbonyl)-6-methoxy-1,2,3,4-tetrahydroisoquinoline-1-carboxamide] | 92.8 | 101 | 102 |  | 101
COc1ccc2c(c1)CCN(C(=O)[C@@H]1CNC(=O)C1)[C@H]2C(=O)Nc1ccc(C(C)(C)C)c(F)c1 [Example 25, (1R)-N-(4-tert-butyl-3-fluorophenyl)-6-methoxy-2-(((3S)-5-oxopyrrolidin-3-yl)carbonyl)-1,2,3,4-tetrahydroisoquinoline-1-carboxamide] | 85.8 | 101 | 102 | 102 | 
COc1ccc2c(c1)CCN(C(=O)[C@H]1CNC(=O)C1)[C@H]2C(=O)Nc1ccc(C(C)(C)C)c(F)c1 [Example 26, (1R)-N-(4-tert-butyl-3-fluorophenyl)-6-methoxy-2-(((3R)-5-oxopyrrolidin-3-yl)carbonyl)-1,2,3,4-tetrahydroisoquinoline-1-carboxamide] | 81.5 | 101 | 97.7 | 102 | 
COc1ccc2c(c1)CCN(C(=O)Cc1cc(O)no1)[C@H]2C(=O)Nc1cc(F)c(C(C)(C)C)c(F)c1 [Example 43, (1R)-N-(4-tert-butyl-3,5-difluorophenyl)-2-((3-hydroxy-1,2-oxazol-5-yl)acetyl)-6-methoxy-1,2,3,4-tetrahydroisoquinoline-1-carboxamide] | 88.3 | 102 | 102 | 101 | 
COc1ccc2c(c1)OCCN(C(=O)Cc1cc(O)no1)[C@H]2C(=O)Nc1cc(F)c([Si](C)(C)C)c(F)c1 [Example 56, (5R)-N-(3,5-difluoro-4-(trimethylsilyl)phenyl)-4-((3-hydroxy-1,2-oxazol-5-yl)acetyl)-8-methoxy-2,3,4,5-tetrahydro-1,4-benzoxazepine-5-carboxamide] | 61.3 | 102 | 101 |  | 99.9
C[Si](C)(C)c1c(F)cc(NC(=O)[C@H]2c3ccc(S(C)(=O)=O)cc3CCN2C(=O)CCCC(=O)O)cc1F [Example 235, 5-((1R)-1-((3,5-difluoro-4-(trimethylsilyl)phenyl)carbamoyl)-6-(methylsulfonyl)-3,4-dihydroisoquinolin-2(1H)-yl)-5-oxopentanoic acid] | 45 | 102 |  |  | 93
CCOc1ccc2c(c1)CCN(C(=O)NCCCC(=O)O)[C@H]2C(=O)Nc1cc(F)c([Si](C)(C)C)c(F)c1 [Example 238, 4-((((1R)-1-((3,5-difluoro-4-(trimethylsilyl)phenyl)carbamoyl)-6-ethoxy-3,4-dihydroisoquinolin-2(1H)-yl)carbonyl)amino)butanoic acid] | 92 | 101 |  |  | 100
CCOc1ccc2c(c1)CCN(C(=O)CC(C)(O)CC(=O)O)[C@H]2C(=O)Nc1cc(F)c([Si](C)(C)C)c(F)c1 (stereo partly drawn) [Example 240, 5-((1R)-1-((3,5-difluoro-4-(trimethylsilyl)phenyl)carbamoyl)-6-ethoxy-3,4-dihydroisoquinolin-2(1H)-yl)-3-hydroxy-3-methyl-5-oxopentanoic acid] | 91 | 101 |  |  | 101
COc1ccc2c(c1)CCN(C(=O)NCCCC(=O)O)[C@H]2C(=O)Nc1cc(F)c([Si](C)(C)C)c(F)c1 [Example 242, 4-((((1R)-1-((3,5-difluoro-4-(trimethylsilyl)phenyl)carbamoyl)-6-methoxy-3,4-dihydroisoquinolin-2(1H)-yl)carbonyl)amino)butanoic acid] | 94 | 101 |  |  | 101
COc1ccc2c(c1)CCN(C(=O)[C@@H](O)CCC(=O)O)[C@H]2C(=O)Nc1cc(F)c([Si](C)(C)C)c(F)c1 [Example 248, (4S)-5-((1R)-1-((3,5-difluoro-4-(trimethylsilyl)phenyl)carbamoyl)-6-methoxy-3,4-dihydroisoquinolin-2(1H)-yl)-4-hydroxy-5-oxopentanoic acid] | 87 | 101 |  |  | 100
C[Si](C)(C)c1c(F)cc(NC(=O)[C@H]2c3ccc4c(c3CCN2C(=O)CCCC(=O)O)OCO4)cc1F [Example 254, 5-((6R)-6-((3,5-difluoro-4-(trimethylsilyl)phenyl)carbamoyl)-8,9-dihydro[1,3]dioxolo[4,5-f]isoquinolin-7(6H)-yl)-5-oxopentanoic acid] | 101 | 102 |  |  | 102

Further lines, with some results ahead:

inhibition at 1 µM (RORγt [1]) [%] | inhibition at 1 µM (RORγt [3]) [%] | inhibition at 1 µM (RORγt [4]) [%] | inhibition at 3 µM (RORγt [2]; [5]) [%] | SMILES | inhibition at 3 µM (RORγt [2]; Jurkat) [%]
80.4 | 102 | 100 | 101 | COc1ccc2c(c1)CCN(C(=O)c1cc(O)no1)[C@H]2C(=O)Nc1ccc(C(C)(C)C)c(F)c1 [Example 13, (1R)-N-(4-tert-butyl-3-fluorophenyl)-2-((3-hydroxy-1,2-oxazol-5-yl)carbonyl)-6-methoxy-1,2,3,4-tetrahydroisoquinoline-1-carboxamide] | 
74.9 | 102 | 102 | 98.9 | COc1ccc2c(n1)CCN(C(=O)Cc1cc(O)no1)C2C(=O)Nc1ccc(C(C)(C)C)c(F)c1 (stereo not shown) [Example 41, N-(4-tert-butyl-3-fluorophenyl)-6-((3-hydroxy-1,2-oxazol-5-yl)acetyl)-2-methoxy-5,6,7,8-tetrahydro-1,6-naphthyridine-5-carboxamide] | 
76.9 | 102 | 103 | 99.6 | COc1ccc2c(c1)CCN(C(=O)Cc1cc(O)no1)[C@H]2C(=O)Nc1cc(F)c2c(c1)CCC2(C)C [Example 45, (1R)-N-(7-fluoro-1,1-dimethyl-2,3-dihydro-1H-inden-5-yl)-2-((3-hydroxy-1,2-oxazol-5-yl)acetyl)-6-methoxy-1,2,3,4-tetrahydroisoquinoline-1-carboxamide] | 
70 | 102 | 100 | 99.9 | COc1ccc2c(c1)CCN(C(=O)CCc1cc(O)no1)[C@H]2C(=O)Nc1cc(F)c2c(c1)CCC2(C)C [Example 63, (1R)-N-(7-fluoro-1,1-dimethyl-2,3-dihydro-1H-inden-5-yl)-2-(3-(3-hydroxy-1,2-oxazol-5-yl)propanoyl)-6-methoxy-1,2,3,4-tetrahydroisoquinoline-1-carboxamide] | 
98 | 101 | 102 | 100 | COc1ccc2c(c1)CCN(C(=O)Cc1cc(O)no1)[C@H]2C(=O)Nc1ccc(C(C)(C)C)c(C#N)c1 [Example 65, (1R)-N-(4-tert-butyl-3-cyanophenyl)-2-((3-hydroxy-1,2-oxazol-5-yl)acetyl)-6-methoxy-1,2,3,4-tetrahydroisoquinoline-1-carboxamide] | 
102 | 100 |  | 83 | CC1(C)CCc2cc(NC(=O)[C@H]3c4ccc5c(c4CCN3C(=O)CCCC(=O)O)OCO5)cc(F)c21 [Example 256, 5-((6R)-6-((7-fluoro-1,1-dimethyl-2,3-dihydro-1H-inden-5-yl)carbamoyl)-8,9-dihydro[1, 3]dioxolo[4,5-f]isoquinolin-7 (6H)-yl)-5-oxopentanoic acid] | 
